The experiment deals with T1, hGPR119 (Homo sapiens, UniProt Q8TDV5).
T1 construct: expressed in transfected cells; host or cells: CHO
T1 sequence (Q8TDV5 1-335): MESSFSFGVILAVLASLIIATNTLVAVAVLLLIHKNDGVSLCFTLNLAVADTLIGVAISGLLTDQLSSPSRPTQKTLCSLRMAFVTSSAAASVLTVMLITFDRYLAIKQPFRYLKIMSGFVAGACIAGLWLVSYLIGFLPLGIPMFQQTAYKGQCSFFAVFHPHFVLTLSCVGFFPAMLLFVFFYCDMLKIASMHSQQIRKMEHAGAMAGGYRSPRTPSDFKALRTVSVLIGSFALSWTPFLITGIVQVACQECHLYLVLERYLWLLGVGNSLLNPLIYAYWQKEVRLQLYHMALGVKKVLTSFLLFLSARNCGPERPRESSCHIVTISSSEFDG
As to the kind of experiment: In vitro cyclic AMP assay (Cisbio dynamic 2 HTRF kit) in CHO-hGPR119 cells. Format: cell-based. Particulars: cAMP; for activation at 1 µM: 1 h, read-out: Induction (% induction at 1 μM). Background: Time-resolved FRET reads energy transfer from a long-lived donor to a nearby acceptor.

SMILES strings stand for the structures.

Consider `CC(C)c1noc(N2CCC(C(Oc3nc4ccc(-c5ccc(S(C)(=O)=O)cc5)nc4s3)C(F)(F)F)CC2)n1` (centres unmarked) [Compound 1094, 3-isopropyl-5-(4-(2,2,2-trifluoro-1-((5-(4-(methysulfonyl)phenyl)thiazolo[5,4-b]pyridin-2-yl)oxy)ethyl)piperidin-1-yl)-1,2,4-oxadiazole], for which, for the setting “compound at 1 μM, 60 min”, the activation at 1 µM is 24%. Take `CC(C)c1noc(N2CCC([C@H](C)Oc3nc4ccc(-c5ccc(S(=O)(=O)C6CC6)cc5)nc4s3)CC2)n1` [Compound 1095, (S)-5-(4-(1-((5-(4-(cyclopropylsulfonyl)phenyl)thiazolo[5,4-b]pyridin-2-yl)oxy)ethyl)piperidin-1-yl)-3-isopropyl-1,2,4-oxadiazole]: where the note is “compound at 1 μM, 60 min”, the activation at 1 µM stood at 84%. In general, EC50 refers to the midpoint of the concentration-response curve. Read a low EC50 as higher potency in that assay. Molecule `CC(C)c1noc(N2CCC([C@H](C)Oc3nc4ccc(-c5ccncc5F)nc4s3)CC2)n1` [Compound 1096, (S)-5-(4-(1-((5-(3-fluoropyridin-4-yl)thiazolo[5,4-b]pyridin-2-yl)oxy)ethyl)piperidin-1-yl)-3-isopropyl-1,2,4-oxadiazole] returned an EC50 of 50 to 100 nM. In addition, the “Induction (% induction at 1 μM)” value (compound at 1 μM, 60 min) was 66%.

Turning to `CC(C)c1nnc(N2CCC(C(C)Oc3nc4ccc(-c5ccc(S(C)(=O)=O)cc5)nc4s3)CC2)o1` (centres unmarked) [Compound 1097, 2-isopropyl-5-(4-(1-((5-(4-(methylsulfonyl)phenyl)thiazolo[5,4-b]pyridin-2-yl)oxy)ethyl)piperidin-1-yl)-1,3,4-oxadiazole], the activation at 1 µM (compound at 1 μM, 60 min) was 34%. Still for that read-out and setting: then `CC(C)c1noc(N2CCC(C(C)Oc3nc4ccc(-c5cc[n+]([O-])cc5)nc4s3)CC2)n1` (centres unmarked) [Compound 1098, 4-(2-(1-(1-(3-isopropyl-1,2,4-oxadiazol-5-yl)piperidin-4-yl)ethoxy)thiazolo[5,4-b]pyridin-5-yl)pyridine 1-oxide], with 48%.

As to `CC(C)c1noc(N2CCC(C(C)Oc3nc4ccc(-c5ccc(S(C)(=O)=O)c(F)c5)nc4s3)CC2)n1` (centres unmarked) [Compound 1100, 5-(4-(1-((5-(3-fluoro-4-(methylsulfonyl)phenyl)thiazolo[5,4-b]pyridin-2-yl)oxy)ethyl)piperidin-1-yl)-3-isopropyl-1,2,4-oxadiazole], under “compound at 1 μM, 60 min”, the activation at 1 µM is 65%. The same measure, in the same setting: then `CC(C)c1noc(N2CCC(C(Oc3nc4ccc(-c5ccc(S(C)(=O)=O)nc5)nc4s3)C(F)(F)F)CC2)n1` (centres unmarked) [Compound 1102, 3-isopropyl-5-(4-(2,2,2-trifluoro-1-((5-(6-(methylsulfonyl)pyridin-3-yl)thiazolo[5,4-b]pyridin-2-yl)oxy)ethyl)piperidin-1-yl)-1,2,4-oxadiazole], with 72%; and `CC(C)c1noc(N2CCC(C(Oc3nc4ccc(-c5ccnc(F)c5)nc4s3)C(F)(F)F)CC2)n1` (centres unmarked) [Compound 1103, 3-isopropyl-5-(4-(2,2,2-trifluoro-1-((5-(2-fluoropyridin-4-yl)thiazolo[5,4-b]pyridin-2-yl)oxy)ethyl)piperidin-1-yl)-1,2,4-oxadiazole], with 63%; and `CC(C)c1noc(C2CCC(C(C)Oc3nc4ccc(-c5ccc(S(C)(=O)=O)cc5)nc4s3)CC2)n1` (centres unmarked) [Compound 1105, 3-isopropyl-5-(4-(1-((5-(4-(methylsulfonyl)phenyl)thiazolo[5,4-b]pyridin-2-yl)oxy)ethyl)cyclohexyl)-1,2,4-oxadiazole], with 13%. On the same count and under the same terms, then `CC(C)c1nsc(N2CCC(C(C)Oc3nc4ccc(-c5ccc(S(C)(=O)=O)cc5)nc4s3)CC2)n1` (centres unmarked) [Compound 1107, 2-(1-(1-(3-isopropyl-1,2,4-thiadiazol-5-yl)piperidin-4-yl)ethoxy)-5-(4-(methylsulfonyl)phenyl)thiazolo[5,4-b]pyridine], with 12%; and `CC(C)c1noc(N2CCC(C(C)Oc3nc4ncc(-c5ccc(S(C)(=O)=O)cc5)nc4s3)CC2)n1` (centres unmarked) [Compound 1108, 3-isopropyl-5-(4-(1-((6-(4-(methylsulfonyl)phenyl)thiazolo[4,5-b]pyrazin-2-yl)oxy)ethyl)piperidin-1-yl)-1,2,4-oxadiazole], with 65%. With `CC(Oc1nc2ccc(-c3ccc(S(C)(=O)=O)cc3)nc2s1)C1CCN(S(=O)(=O)C2CC2)CC1` (centres unmarked) [Compound 1109, 2-(1-(1-(cyclopropylsulfonyl)piperidin-4-yl)ethoxy)-5-(4-(methylsulfonyl)phenyl)thiazolo[5,4-b]pyridine], the activation at 1 µM (compound at 1 μM, 60 min) came to 0%.

Take `CCCc1cnc(N2CCC(C(C)Oc3nc4ncc(-c5ccc(S(C)(=O)=O)cc5)nc4s3)CC2)nc1` (centres unmarked) [Compound 1110, 6-(4-(methylsulfonyl)phenyl)-2-(1-(1-(5-propylpyrimidin-2-yl)piperidin-4-yl)ethoxy)thiazolo[4,5-b]pyrazine]: for the setting “compound at 1 μM, 60 min”, the activation at 1 µM came out at 78%. The same measure, in the same setting: in the case of `CC(C)c1noc(N2CCC(C(C)Oc3nc4ccc(-c5ccc(S(C)(=O)=O)cc5F)nc4s3)CC2)n1` (centres unmarked) [Compound 1111, 5-(4-(1-((5-(2-fluoro-4-(methylsulfonyl)phenyl)thiazolo[5,4-b]pyridin-2-yl)oxy)ethyl)piperidin-1-yl)-3-isopropyl-1,2,4-oxadiazole] it was 24%; in that of `CC(C)c1cnc(N2CCC(C(C)Oc3nc4ccc(-c5ccc(S(C)(=O)=O)cc5)nc4s3)CC2)nc1` (centres unmarked) [Compound 1113, 2-(1-(1-(5-isopropylpyrimidin-2-yl)piperidin-4-yl)ethoxy)-5-(4-(methylsulfonyl)phenyl)thiazolo[5,4-b]pyridine], 57%. For `CC(C)c1noc(N2CCC([C@H](C)Oc3nc4ncc(-c5ccc(S(C)(=O)=O)nc5)nc4s3)CC2)n1` [Compound 1114, (S)-3-isopropyl-5-(4-(1-((6-(6-(methyslulfonyl)pyridin-3-yl)thiazolo[4,5-b]pyrazin-2-yl)oxy)ethyl)piperidin-1-yl)-1,2,4-oxadiazole], the EC50 is 50 to 100 nM. Besides, the activation at 1 µM (compound at 1 μM, 60 min) came out at 75%. With `CCCS(=O)(=O)N1CCC(C(C)Oc2nc3ccc(-c4ccc(S(C)(=O)=O)cc4)nc3s2)CC1` (centres unmarked) [Compound 1115, 5-(4-(methylsulfonyl)phenyl)-2-(1-(1-(propylsulfonyl)piperidin-4-yl)ethoxy)thiazolo[5,4-b]pyridine], for the setting “compound at 1 μM, 60 min”, the activation at 1 µM turned out to be 12%.

On to `CC(C)c1noc(N2CCC(C(C)Oc3nc4ccc(-c5cnc(Cl)nc5)nc4s3)CC2)n1` (centres unmarked) [Compound 1116, 5-(4-(1-((5-(2-chloropyrimidin-5-yl)thiazolo[5,4-b]pyridin-2-yl)oxy)ethyl)piperidin-1-yl)-3-isopropyl-1,2,4-oxadiazole], for which, for the setting “compound at 1 μM, 60 min”, the activation at 1 µM turned out to be 61%. For the molecule `CC(Oc1nc2ccc(-c3ccc(S(C)(=O)=O)cc3)nc2s1)C1CCN(C(=O)OC2(C)CC2)CC1` (centres unmarked) [Compound 1117, 1-methylcyclopropyl 4-(1-((5-(4-(methylsulfonyl)phenyl)thiazolo[5,4-b]pyridin-2-yl)oxy)ethyl)piperidine-1-carboxylate], under “compound at 1 μM, 60 min”, the activation at 1 µM turned out to be 2%. Take `C=C(C)c1cnc(N2CCC(C(C)Oc3nc4ccc(-c5ccc(S(C)(=O)=O)cc5)nc4s3)CC2)nc1` (centres unmarked) [Compound 1118, 5-(4-(methylsulfonyl)phenyl)-2-(1-(1-(5-(prop-1-en-2-yl)pyrimidin-2-yl)piperidin-4-yl)ethoxy)thiazolo[5,4-b]pyridine]: the activation at 1 µM (compound at 1 μM, 60 min) came out at 47%. On the same count and under the same terms, in the case of `CC(C)c1noc(N2CCC(C(C)Oc3nc4ccc(-c5cncs5)nc4s3)CC2)n1` (centres unmarked) [Compound 1121, 3-isopropyl-5-(4-(1-((5-(thiazol-5-yl)thiazolo[5,4-b]pyridin-2-yl)oxy)ethyl)piperidin-1-yl)-1,2,4-oxadiazole] it was 30%; in that of `CC(C)c1noc(N2CCC(C(C)Oc3nc4ccc(-c5cnoc5)nc4s3)CC2)n1` (centres unmarked) [Compound 1122, 3-isopropyl-5-(4-(1-((5-(isoxazol-4-yl)thiazolo[5,4-b]pyridin-2-yl)oxy)ethyl)piperidin-1-yl)-1,2,4-oxadiazole], 30%; in that of `Cc1cc(-c2ccc3nc(OC(C)C4CCN(c5nc(C(C)C)no5)CC4)sc3n2)ccn1` (centres unmarked) [Compound 1123, 3-isopropyl-5-(4-(1-((5-(2-methylpyridin-4-yl)thiazolo[5,4-b]pyridin-2-yl)oxy)ethyl)piperidin-1-yl)-1,2,4-oxadiazole], 50%. Same read-out and setting: in the case of `CC(C)c1noc(N2CCC(C(C)Oc3nc4ccc(-c5cnsc5)nc4s3)CC2)n1` (centres unmarked) [Compound 1124, 2-(1-(1-(3-isopropyl-1,2,4-oxadiazol-5-yl)piperidin-4-yl)ethoxy)-5-(isothiazol-4-yl)thiazolo[5,4-b]pyridine] it was 30%.

Consider `Cc1nscc1-c1ccc2nc(OC(C)C3CCN(c4nc(C(C)C)no4)CC3)sc2n1` (centres unmarked) [Compound 1125, 3-isopropyl-5-(4-(1-((5-(3-methylisothiazol-4-yl)thiazolo[5,4-b]pyridin-2-yl)oxy)ethyl)piperidin-1-yl)-1,2,4-oxadiazole], for which the activation at 1 µM (compound at 1 μM, 60 min) is 38%. On the same count and under the same terms, then `CC(C)c1noc(N2CCC(C(C)Oc3nc4ccc(-c5cc[nH]c(=O)c5)nc4s3)CC2)n1` (centres unmarked) [Compound 1126, 4-(2-(1-(1-(3-isopropyl-1,2,4-oxadiazol-5-yl)piperidin-4-yl)ethoxy)thiazolo[5,4-b]pyridin-5-yl)pyridin-2(1H)-one], with 42%; and `CC(C)c1noc(N2CCC(C(C)Oc3nc4ccc(-c5ccn(C)c(=O)c5)nc4s3)CC2)n1` (centres unmarked) [Compound 1127, 4-(2-(1-(1-(3-isopropyl-1,2,4-oxadiazol-5-yl)piperidin-4-yl)ethoxy)thiazolo[5,4-b]pyridin-5-yl)-1-methylpyridin-2(1H)-one], with 50%.

(Values after patent US10526345B2, “Compounds as GPR119 agonists” (Mankind Pharma Ltd., priority 2016, dated 2020).)
